# Laboratory results as given in patent publication US20220151292A1, “NICOTINE POUCH COMPOSITION” (NCP NextGen A/S, priority 2020, published 2022).
# Tests used:
# Assay type in all cases: physicochemical
# [1] = Release experiment: nicotine released from NPR (16%) in water with 1 equivalent of AlCl3 (Example 6E); settings: 1 equivalent AlCl3, water, nicotine 28 mg/L, 25 degrees Celsius, 150 rpm, HPLC
# Description: The release experiment was performed by adding NPR (16%) and 1 equivalent of AlCl3 to a volume of water corresponding to a nicotine concentration of 28 mg/L. The equivalents are relative to nicotine. The temperature of the water was 25 degrees Celsius throughout the experiment and stirring of 150 rpm was applied throughout the experiment. pH was measured at experiment start and end. The pH was in all experiments below 7.0 at both the start and end of the experiment.
# (§1) A relative low nicotine concentration is used in order to reduce the impact of equilibrium on both the release rate and effective release of nicotine from the ion-exchange resin.
# (§2) Samples were taken out at varying timepoints and analyzed for nicotine content using standard HPLC. The result is presented as percentage of nicotine released.
# [2] = Release experiment: nicotine released from NPR (16%) in water with varying salts (CaCl2, NaCl) and equivalents (Example 6A); settings: NPR (16%) in 900 mL water, nicotine 28 mg/L, 25 degrees Celsius, 100 rpm, HPLC
# [3] = Release experiment: nicotine released from NPR (16%) in water with varying equivalents of CaCl2 (Example 6B); settings: nicotine 28 mg/L, 25 degrees Celsius, 100 rpm, HPLC
# Description: The release experiment was performed by adding NPR (16%) and varying equivalent of CaCl2 to a volume of water corresponding to a nicotine concentration of 28 mg/L. The equivalents of CaCl2 are relative to nicotine. The temperature of the water was 25 degrees Celsius throughout the experiment and stirring of 100 rpm was applied throughout the experiment. pH was measured at experiment start and end. The pH was in all experiments below 7.0 at both the start and end of the experiment.
# as §1, §2
# [4] = Release experiment: nicotine released from nicotine premixes of varying nicotine content with 1 equivalent of CaCl2 (Example 6D); settings: nicotine premix, 1 equivalent CaCl2, water, nicotine 28 mg/L, 25 degrees Celsius, 150 rpm, HPLC
# Description: The release experiment was performed by adding nicotine premix having varying content of nicotine and 1 equivalent of CaCl2 to a volume of water, whereby a corresponding nicotine concentration of 28 mg/L is obtained. The equivalent of CaCl2 is relative to nicotine. The temperature of the water was 25 degrees Celsius throughout the experiment and stirring of 150 rpm was applied throughout the experiment. pH was measured at experiment start and end. The pH was in all experiments below 7.0 at both the start and end of the experiment.
# as §1, §2
# [5] = Release experiment: nicotine released from NPR (16%) in water with varying equivalents of MgCl2 (Example 6C); settings: nicotine 28 mg/L, 25 degrees Celsius, 100 rpm, HPLC
# Description: The release experiment was performed by adding NPR (16%) and varying equivalents of MgCl2 to a volume of water corresponding to a nicotine concentration of 28 mg/L. The equivalents of MgCl2 are relative to nicotine. The temperature of the water was 25 degrees Celsius throughout the experiment and stirring of 100 rpm was applied throughout the experiment. pH was measured at experiment start and end. The pH was in all experiments below 7.0 at both the start and end of the experiment.
# as §1, §2
structure (smiles),measurement,setting,value
[Cl][Al]([Cl])[Cl] [AlCl3],effect of AlCl3 on release of nicotine from NPR,[1],significantly increases the release of nicotine
[Ca+2].[Cl-].[Cl-] [CaCl2],effect of the salt on release of nicotine from NPR,[2],significantly increases the release of nicotine
same,effect of CaCl2 on release of nicotine from NPR,[3],significantly increases the release of nicotine
same,effect of CaCl2 on release of nicotine from premixes,[4],significantly increases the release of nicotine
[Cl-].[Cl-].[Mg+2] [MgCl2],effect of MgCl2 on release of nicotine from NPR,[5],significantly increases the release of nicotine
"[Cl-].[Na+] [NaCl, reference compound]",effect of the salt on release of nicotine from NPR,[2],much lower effect on the release of nicotine
